This is an account of results in article PMC5218480 (PLoS ONE, 2017).

Each structure is given as a SMILES string.

In this assay the test system is MV-4-11 cells. Briefly: Gene expression microarray analysis (Affymetrix PrimeView) and GSEA. The assay is classed as cell-based, human. Also noted: RFU PODN (11730768_x_at) / Fold change /veh PODN (11730768_x_at) / RFU LINC00158 (11744669_a_at) / Fold change /veh LINC00158 (11744669_a_at) / RFU DUSP10 (11751237_a_at) / Fold change /veh DUSP10 (11751237_a_at) / RFU ID3 (11757404_x_at) / Fold change /veh ID3 (11757404_x_at) / RFU PLEKHG5 (11737974_s_at) / Fold change /veh PLEKHG5 (11737974_s_at) / RFU LRRC4B (11730491_at) / Fold change /veh LRRC4B (11730491_at) / RFU GIMAP4 (11747438_a_at) / Fold change /veh GIMAP4 (11747438_a_at) / RFU KRT8 (11758183_x_at) / Fold change /veh KRT8 (11758183_x_at) / RFU CNN1 (11734310_a_at) / Fold change /veh CNN1 (11734310_a_at) / RFU VPS37D (11726825_at) / Fold change /veh VPS37D (11726825_at) / RFU C10orf10 (11716522_x_at) / Fold change /veh C10orf10 (11716522_x_at) / RFU KIR2DL2 /// KIR2DL4 /// KIR2DL5A /// KIR2DL5B /// KIR2DS1 /// KIR2DS2 /// KIR2DS3 /// KIR2DS4 /// KIR3DL3 /// KIR3DL3 /// KIR3DS1 (11738374_at) / Fold change /veh KIR2DL2 /// KIR2DL4 /// KIR2DL5A /// KIR2DL5B /// KIR2DS1 /// KIR2DS2 /// KIR2DS3 /// KIR2DS4 /// KIR3DL3 /// KIR3DL3 /// KIR3DS1 (11738374_at) / RFU C1QL1 (11718748_at) / Fold change /veh C1QL1 (11718748_at) / RFU TMPRSS4 (11747572_a_at) / Fold change /veh TMPRSS4 (11747572_a_at) / RFU HAMP (11756126_x_at) / Fold change /veh HAMP (11756126_x_at) / RFU RNFT2 (11725882_a_at) / Fold change /veh RNFT2 (11725882_a_at) / RFU NR4A2 (11747474_a_at) / Fold change /veh NR4A2 (11747474_a_at) / RFU ABCC12 (11746883_a_at) / Fold change /veh ABCC12 (11746883_a_at) / RFU TMEM136 (11760407_x_at) / Fold change /veh TMEM136 (11760407_x_at) / RFU CLDN22 /// WWC2 (11732394_at) / Fold change /veh CLDN22 /// WWC2 (11732394_at) / RFU HLA-DPB1 (11760878_x_at) / Fold change /veh HLA-DPB1 (11760878_x_at) / RFU SPINT1 (11716480_a_at) / Fold change /veh SPINT1 (11716480_a_at) / RFU GAP43 (11754022_s_at) / Fold change /veh GAP43 (11754022_s_at) / RFU A4GNT (11735810_at) / Fold change /veh A4GNT (11735810_at) / RFU PRB3 (11715151_x_at) / Fold change /veh PRB3 (11715151_x_at) / RFU TUBB4B (11761932_at) / Fold change /veh TUBB4B (11761932_at) / RFU CAPN14 (11732068_a_at) / Fold change /veh CAPN14 (11732068_a_at) / RFU TMCC2 (11721928_a_at) / Fold change /veh TMCC2 (11721928_a_at) / RFU IRGQ (11745062_a_at) / Fold change /veh IRGQ (11745062_a_at) / RFU FAM174B (11720279_a_at) / Fold change /veh FAM174B (11720279_a_at) / RFU TMPRSS4 (11748680_a_at) / Fold change /veh TMPRSS4 (11748680_a_at) / RFU FAM212B (11763350_a_at) / Fold change /veh FAM212B (11763350_a_at) / RFU PLEKHG5 (11743358_a_at) / Fold change /veh PLEKHG5 (11743358_a_at) / RFU ZSCAN30 (11745921_a_at) / Fold change /veh ZSCAN30 (11745921_a_at) / RFU CMKLR1 (11741424_a_at) / Fold change /veh CMKLR1 (11741424_a_at) / RFU LOC101060620 /// MAPK8IP1 (11723275_at) / Fold change /veh LOC101060620 /// MAPK8IP1 (11723275_at) / RFU SPTSSB (11747773_x_at) / Fold change /veh SPTSSB (11747773_x_at) / RFU PRSS12 (11739890_at) / Fold change /veh PRSS12 (11739890_at) / RFU BIN1 (11741810_x_at) / Fold change /veh BIN1 (11741810_x_at) / RFU WNT11 (11732464_a_at) / Fold change /veh WNT11 (11732464_a_at) / RFU C10orf10 (11716521_a_at) / Fold change /veh C10orf10 (11716521_a_at) / RFU C5orf56 (11738089_at) / Fold change /veh C5orf56 (11738089_at) / RFU CYB561 (11721691_x_at) / Fold change /veh CYB561 (11721691_x_at) / RFU ANKRD19P (11752326_a_at) / Fold change /veh ANKRD19P (11752326_a_at) / RFU OR2T12 /// OR2T33 /// OR2T8 (11738714_s_at) / Fold change /veh OR2T12 /// OR2T33 /// OR2T8 (11738714_s_at) / RFU VCAN (11748164_a_at) / Fold change /veh VCAN (11748164_a_at) / RFU JSRP1 (11732532_at) / Fold change /veh JSRP1 (11732532_at) / RFU KRTAP10-11 (11738290_x_at) / Fold change /veh KRTAP10-11 (11738290_x_at) / RFU MYO3A (11730013_a_at) / Fold change /veh MYO3A (11730013_a_at) / RFU EBF3 (11725865_a_at) / Fold change /veh EBF3 (11725865_a_at) / RFU CAMK2N1 (11719241_x_at) / Fold change /veh CAMK2N1 (11719241_x_at) / RFU C5orf56 (11738088_a_at) / Fold change /veh C5orf56 (11738088_a_at) / RFU OLFML3 (11715873_a_at) / Fold change /veh OLFML3 (11715873_a_at) / RFU LOC100653217 /// NTM (11731650_a_at) / Fold change /veh LOC100653217 /// NTM (11731650_a_at) / RFU MAPK11 (11762145_a_at) / Fold change /veh MAPK11 (11762145_a_at) / RFU FIZ1 (11724087_x_at) / Fold change /veh FIZ1 (11724087_x_at) / RFU OASL (11726364_x_at) / Fold change /veh OASL (11726364_x_at) / RFU SOX15 (11748057_x_at) / Fold change /veh SOX15 (11748057_x_at) / RFU CD79A (11719716_a_at) / Fold change /veh CD79A (11719716_a_at) / RFU HIST1H1D (11736915_at) / Fold change /veh HIST1H1D (11736915_at) / RFU CASKIN2 (11723855_a_at) / Fold change /veh CASKIN2 (11723855_a_at) / RFU LOC730098 (11760151_x_at) / Fold change /veh LOC730098 (11760151_x_at) / RFU OR4N2 (11742367_at) / Fold change /veh OR4N2 (11742367_at) / RFU PRRT2 (11749266_a_at) / Fold change /veh PRRT2 (11749266_a_at) / RFU SNX32 (11753110_a_at) / Fold change /veh SNX32 (11753110_a_at) / RFU CDHR5 (11726645_a_at) / Fold change /veh CDHR5 (11726645_a_at) / RFU RCAN1 (11760418_a_at) / Fold change /veh RCAN1 (11760418_a_at) / RFU FAM167A (11723789_a_at) / Fold change /veh FAM167A (11723789_a_at) / RFU FAM26E (11764081_at) / Fold change /veh FAM26E (11764081_at) / RFU ISYNA1 (11749810_s_at) / Fold change /veh ISYNA1 (11749810_s_at) / RFU ACY1 (11761880_at) / Fold change /veh ACY1 (11761880_at) / RFU 11764098_at / Fold change /veh 11764098_at / RFU SAMD14 (11745864_x_at) / Fold change /veh SAMD14 (11745864_x_at) / RFU NPB (11741838_a_at) / Fold change /veh NPB (11741838_a_at) / RFU TMPRSS6 (11731388_a_at) / Fold change /veh TMPRSS6 (11731388_a_at) / RFU KRTAP10-2 (11738614_at) / Fold change /veh KRTAP10-2 (11738614_at) / RFU ARHGAP8 /// PRR5-ARHGAP8 (11727945_x_at) / Fold change /veh ARHGAP8 /// PRR5-ARHGAP8 (11727945_x_at) / RFU KRTAP5-7 /// NADSYN1 (11734609_at) / Fold change /veh KRTAP5-7 /// NADSYN1 (11734609_at) / RFU RASL12 (11751679_a_at) / Fold change /veh RASL12 (11751679_a_at) / RFU CDKN2B (11736163_a_at) / Fold change /veh CDKN2B (11736163_a_at) / RFU PRF1 (11729649_at) / Fold change /veh PRF1 (11729649_at) / RFU, ZNF638 /// ZNF638-IT1 / Fold change vs veh, ZNF638 /// ZNF638-IT1 / RFU, PANK3 / Fold change vs veh, PANK3 / RFU, SH3YL1 / Fold change vs veh, SH3YL1 / RFU, ZEB2 / Fold change vs veh, ZEB2 / RFU, NRIP1 / Fold change vs veh, NRIP1 / RFU, PTTG1IP / Fold change vs veh, PTTG1IP / RFU, CAPN2 / Fold change vs veh, CAPN2 / RFU, MED14 / Fold change vs veh, MED14 / RFU, SNORA58 / Fold change vs veh, SNORA58 / RFU, C1orf63 / Fold change vs veh, C1orf63 / RFU, LRRFIP1 / Fold change vs veh, LRRFIP1 / RFU, NDUFAF7 / Fold change vs veh, NDUFAF7 / RFU, SLC12A2 / Fold change vs veh, SLC12A2 / RFU, IBTK / Fold change vs veh, IBTK / RFU, ESF1 / Fold change vs veh, ESF1 / Fold change vs veh, TMEM50B / RFU, TAOK1 / Fold change vs veh, TAOK1 / RFU, ACBD3 / Fold change vs veh, ACBD3 / RFU, TMA16 / Fold change vs veh, TMA16 / RFU, RWDD3 / Fold change vs veh, RWDD3 / RFU, BCAT1 / Fold change vs veh, BCAT1 / RFU, EDEM3 / Fold change vs veh, EDEM3 / RFU, TMEM33 / Fold change vs veh, TMEM33 / RFU, WDR75 / Fold change vs veh, WDR75 / RFU, AHCTF1 / Fold change vs veh, AHCTF1 / RFU, TFRC / Fold change vs veh, TFRC / RFU, ZDHHC17 / Fold change vs veh, ZDHHC17 / RFU, NOM1 / Fold change vs veh, NOM1 / RFU, ARL8B / Fold change vs veh, ARL8B / RFU, ZBTB11 / Fold change vs veh, ZBTB11 / RFU, TAMM41 / Fold change vs veh, TAMM41 / RFU, KIAA1704 /// LOC100996395 / Fold change vs veh, KIAA1704 /// LOC100996395 / RFU, ING1 / Fold change vs veh, ING1 / RFU, TRMT61B / Fold change vs veh, TRMT61B / RFU, FUBP3 / Fold change vs veh, FUBP3 / RFU, TP53 / Fold change vs veh, TP53 / RFU, TNKS2 / Fold change vs veh, TNKS2 / RFU, ZFP14 / Fold change vs veh, ZFP14 / RFU, ACTR2 / Fold change vs veh, ACTR2 / RFU, PPP3R1 / Fold change vs veh, PPP3R1 / RFU, PIK3R1 / Fold change vs veh, PIK3R1 / RFU, HNRNPA1 / Fold change vs veh, HNRNPA1 / RFU, RNF170 / Fold change vs veh, RNF170 / RFU, ZNF28 / Fold change vs veh, ZNF28 / RFU, RNGTT / Fold change vs veh, RNGTT / RFU, OGT / Fold change vs veh, OGT / RFU, BRD1 / Fold change vs veh, BRD1 / RFU, MARS / Fold change vs veh, MARS / RFU, ZNF655 / Fold change vs veh, ZNF655 / RFU, FAHD1 / Fold change vs veh, FAHD1 / RFU, BDP1 / Fold change vs veh, BDP1 / RFU, LRRCC1 / Fold change vs veh, LRRCC1 / RFU, ARID1A / Fold change vs veh, ARID1A / RFU, ZNF146 / Fold change vs veh, ZNF146 / RFU, ZNF330 / Fold change vs veh, ZNF330 / RFU, GPN3 / Fold change vs veh, GPN3 / RFU, C9orf123 / Fold change vs veh, C9orf123 / RFU, N4BP2L2 / Fold change vs veh, N4BP2L2 / RFU, ARFIP1 / Fold change vs veh, ARFIP1 / RFU, FAM179B / Fold change vs veh, FAM179B / RFU, BCL10 / Fold change vs veh, BCL10 / RFU, UHRF1BP1L / Fold change vs veh, UHRF1BP1L / RFU, BET1 / Fold change vs veh, BET1 / RFU, CNOT2 / Fold change vs veh, CNOT2 / RFU, ZNF268 / Fold change vs veh, ZNF268 / Fold change vs veh, ZNF507 / RFU, DGCR2 / Fold change vs veh, DGCR2 / RFU, WDSUB1 / Fold change vs veh, WDSUB1 / Fold change vs veh, HSP90B1 /// MIR3652 / RFU, ADSS / Fold change vs veh, ADSS / RFU, GK / Fold change vs veh, GK / RFU, ZNF148 / Fold change vs veh, ZNF148 / RFU, TAF9 / Fold change vs veh, TAF9 / RFU, SLC1A5 / Fold change vs veh, SLC1A5 / RFU, SLMO2 / Fold change vs veh, SLMO2 / RFU, ABCC4 / Fold change vs veh, ABCC4 / RFU, LOC101060439 /// RAP1B / Fold change vs veh, LOC101060439 /// RAP1B / RFU, RFX7 / Fold change vs veh, RFX7 / RFU, GTPBP10 / Fold change vs veh, GTPBP10 / RFU, CNEP1R1 / Fold change vs veh, CNEP1R1 / RFU, BIVM-ERCC5 /// ERCC5 / Fold change vs veh, BIVM-ERCC5 /// ERCC5 / RFU, ILF3 / Fold change vs veh, ILF3 / RFU 11762660_at / Fold change /veh 11762660_at / RFU VCAN (11757783_s_at) / Fold change /veh VCAN (11757783_s_at) / RFU DDX43 (11728927_at) / Fold change /veh DDX43 (11728927_at) / RFU KRT8 (11758188_x_at) / Fold change /veh KRT8 (11758188_x_at) / RFU NKD1 (11759106_at) / Fold change /veh NKD1 (11759106_at) / RFU SRD5A1 (11742802_a_at) / Fold change /veh SRD5A1 (11742802_a_at) / RFU TPSAB1 /// TPSB2 (11721975_s_at) / Fold change /veh TPSAB1 /// TPSB2 (11721975_s_at) / RFU GSTM3 (11746129_a_at) / Fold change /veh GSTM3 (11746129_a_at) / RFU IL23R (11737362_x_at) / Fold change /veh IL23R (11737362_x_at) / RFU TMEM51 (11727254_a_at) / Fold change /veh TMEM51 (11727254_a_at) / RFU PIWIL2 (11732686_x_at) / Fold change /veh PIWIL2 (11732686_x_at) / RFU ORM1 (11744905_x_at) / Fold change /veh ORM1 (11744905_x_at) / RFU CCDC152 (11743942_at) / Fold change /veh CCDC152 (11743942_at) / RFU ECM1 (11717891_a_at) / Fold change /veh ECM1 (11717891_a_at) / RFU IL23R (11748794_a_at) / Fold change /veh IL23R (11748794_a_at) / RFU TNFAIP8L3 (11732012_x_at) / Fold change /veh TNFAIP8L3 (11732012_x_at) / RFU MBOAT4 (11741988_at) / Fold change /veh MBOAT4 (11741988_at) / RFU 11764193_at / Fold change /veh 11764193_at / RFU TMEM53 (11763286_at) / Fold change /veh TMEM53 (11763286_at) / RFU MAGEB2 (11727129_at) / Fold change /veh MAGEB2 (11727129_at) / RFU TMEM200A (11744735_a_at) / Fold change /veh TMEM200A (11744735_a_at) / RFU CCDC152 (11751479_a_at) / Fold change /veh CCDC152 (11751479_a_at) / RFU FAM211A (11726209_a_at) / Fold change /veh FAM211A (11726209_a_at) / RFU RGS16 (11746705_a_at) / Fold change /veh RGS16 (11746705_a_at) / RFU VCAN (11755009_s_at) / Fold change /veh VCAN (11755009_s_at) / RFU RHOB (11743442_s_at) / Fold change /veh RHOB (11743442_s_at) / RFU RGS16 (11720943_a_at) / Fold change /veh RGS16 (11720943_a_at) / RFU RGS16 (11720944_at) / Fold change /veh RGS16 (11720944_at) / RFU, VPS4B / Fold change vs veh, VPS4B / RFU, CREB1 / Fold change vs veh, CREB1 / RFU, DNAJC13 / Fold change vs veh, DNAJC13 / RFU, GNAQ / Fold change vs veh, GNAQ / RFU, CDK5R1 / Fold change vs veh, CDK5R1 / RFU, ZRANB3 / Fold change vs veh, ZRANB3 / RFU, CUL4A / Fold change vs veh, CUL4A / RFU, CCNY / Fold change vs veh, CCNY / RFU, UFL1 / Fold change vs veh, UFL1 / RFU, COG3 / Fold change vs veh, COG3 / RFU, DIAPH2 / Fold change vs veh, DIAPH2 / RFU, SKA2 / Fold change vs veh, SKA2 / RFU, AFF3 / Fold change vs veh, AFF3 / RFU, LMF1 / Fold change vs veh, LMF1 / RFU, IPO11 / Fold change vs veh, IPO11 / RFU, DFFB / Fold change vs veh, DFFB / RFU, FOXP1 / Fold change vs veh, FOXP1 / RFU, CARD8 / Fold change vs veh, CARD8 / RFU, STRN3 / Fold change vs veh, STRN3 / RFU, ADK / Fold change vs veh, ADK / RFU, RASSF2 / Fold change vs veh, RASSF2 / RFU, WIPF1 / Fold change vs veh, WIPF1 / RFU, LARP1B / Fold change vs veh, LARP1B / RFU, RASA1 / Fold change vs veh, RASA1 / RFU, RB1 / Fold change vs veh, RB1 / RFU, PPFIA1 / Fold change vs veh, PPFIA1 / RFU, MAT2A / Fold change vs veh, MAT2A / RFU, CCT5 / Fold change vs veh, CCT5 / RFU, WDR92 / Fold change vs veh, WDR92 / RFU, CUX1 / Fold change vs veh, CUX1 / RFU, TTC7A / Fold change vs veh, TTC7A / RFU, TMEM135 / Fold change vs veh, TMEM135 / RFU, DEPTOR / Fold change vs veh, DEPTOR / RFU, CPM / Fold change vs veh, CPM / RFU, DNAJB6 / Fold change vs veh, DNAJB6 / RFU, CACNA2D3 / Fold change vs veh, CACNA2D3 / RFU, DTX4 / Fold change vs veh, DTX4 / RFU, TFCP2 / Fold change vs veh, TFCP2 / RFU, GMCL1 /// GMCL1P1 / Fold change vs veh, GMCL1 /// GMCL1P1 / RFU, AEBP2 / Fold change vs veh, AEBP2 / RFU, SNHG1 /// SNORD22 /// SNORD25 /// SNORD26 /// SNORD27 /// SNORD28 /// SNORD29 /// SNORD31 / Fold change vs veh, SNHG1 /// SNORD22 /// SNORD25 /// SNORD26 /// SNORD27 /// SNORD28 /// SNORD29 /// SNORD31 / Fold change (Aza/veh), C12orf56 (ProbeSet 11735607_a_at) / Fold change (ACY-1035/veh), C12orf56 (ProbeSet 11735607_a_at) / Fold change (Aza/veh), FGFR1OP (ProbeSet 11751329_s_at) / Fold change (ACY-1035/veh), FGFR1OP (ProbeSet 11751329_s_at) / Fold change (Aza/veh), VPS36 (ProbeSet 11739960_a_at) / Fold change (ACY-1035/veh), VPS36 (ProbeSet 11739960_a_at) / RFU SYPL1 (11715823_x_at) / Fold change /veh SYPL1 (11715823_x_at) / RFU IGFBP7 (11715501_s_at) / Fold change /veh IGFBP7 (11715501_s_at) / RFU REEP3 (11722064_at) / Fold change /veh REEP3 (11722064_at) / RFU IGLL1 (11728026_x_at) / Fold change /veh IGLL1 (11728026_x_at): dose or concentration left out as unconfirmed. The following applies: ProbeSet 11722302_a_at; LIST B.

As to `Nc1ncn([C@@H]2O[C@H](CO)[C@@H](O)[C@H]2O)c(=O)n1` [azacitidine], the “Fold change vs veh, LRRFIP1” value is 0.89.
